Measurements as given in ChEMBL document CHEMBL4680160, “A perspective review on fatty acid amide hydrolase (FAAH) inhibitors as potential therapeutic agents” (Eur J Med Chem, 2020).

Key:
[1] = biological target: T1, Fatty-acid amide hydrolase 1 (Rattus norvegicus, UniProt P97612); test: Inhibition of FAAH in rat brain microsomes using N-(2-hydroxyethyl)-4-pyren-1-ylbutanamide as substrate incubated for 45 mins by reverse-phase HPLC-based fluorescence assay
T1 sequence (P97612 whole entry): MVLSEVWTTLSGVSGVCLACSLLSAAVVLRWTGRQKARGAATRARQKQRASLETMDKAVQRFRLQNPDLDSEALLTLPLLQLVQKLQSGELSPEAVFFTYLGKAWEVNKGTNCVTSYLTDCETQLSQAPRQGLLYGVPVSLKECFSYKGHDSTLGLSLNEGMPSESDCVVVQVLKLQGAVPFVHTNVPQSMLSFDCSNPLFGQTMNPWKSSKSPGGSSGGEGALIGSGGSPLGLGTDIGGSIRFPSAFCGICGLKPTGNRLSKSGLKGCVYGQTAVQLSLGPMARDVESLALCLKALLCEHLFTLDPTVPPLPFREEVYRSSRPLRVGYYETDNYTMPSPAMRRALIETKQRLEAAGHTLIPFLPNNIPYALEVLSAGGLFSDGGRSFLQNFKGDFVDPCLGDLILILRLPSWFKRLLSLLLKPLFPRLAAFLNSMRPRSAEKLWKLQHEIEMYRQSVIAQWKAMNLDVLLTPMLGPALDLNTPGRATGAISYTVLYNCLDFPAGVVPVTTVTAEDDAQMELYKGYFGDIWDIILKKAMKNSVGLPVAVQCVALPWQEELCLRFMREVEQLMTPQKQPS

[2] = biological target: T1, Fatty-acid amide hydrolase 1; test: Inhibition of FAAH in rat brain homogenate using [3H]AEA as substrate; type: tissue-based
[3] = biological target: T1, Fatty-acid amide hydrolase 1; test: Inhibition of FAAH in rat brain homogenate using [3H]AEA as substrate incubated for 10 mins by liquid scintillation spectroscopy; type: tissue-based

CS(=O)(=O)NC(=O)c1ccc2c(cnn2CC(=O)COc2ccc(Oc3ccccc3)cc2)c1
IC50 [1]: 0.77 µM

COCC(=O)Nc1ccc2c(cnn2CC(=O)COc2ccc(Oc3ccccc3)cc2)c1
IC50 [1]: 6.3 µM

O=C(COc1ccc(Oc2ccccc2)cc1)Cn1ncc2cc([N+](=O)[O-])ccc21
IC50 [1]: 0.55 µM

CCC/C=C/COCC(=O)Nc1cccc(-c2nc3ncccc3o2)c1
IC50 [2]: 17 µM

CC(C)Cc1ccc(C(C)C(=O)NCc2ccc(Cl)c(Cl)c2)cc1 (stereo not drawn)
IC50 [3]: 36 µM

O=C(COc1ccc(-c2ccccc2)cc1)Nc1cccc(-c2nc3cccnc3[nH]2)c1
IC50 [2]: 13 µM

COc1ccccc1CNC(=O)C(C)c1ccc(CC(C)C)cc1 (stereo not drawn)
IC50 [3]: 18 µM

O=C(COc1ccc(C2CCCCC2)cc1)Nc1cccc(-c2nc3ncccc3o2)c1
IC50 [2]: 2.6 µM

O=C(Cn1nnc2ccccc21)c1nc2cc(Oc3ccccc3)ccc2o1
IC50 [1]: 10 µM

O=C(COc1ccc(Oc2ccccc2)cc1)Cn1ncc2cc(NC(=O)NC3CCCCC3)ccc21
IC50 [1]: 0.84 µM

CC(C)Cc1ccc(C(C)C(=O)N2CCN(c3cccc(Cl)c3)CC2)cc1 (stereo not drawn)
IC50 [3]: 1.7 µM

O=C(COc1ccc(C2CCCCC2)cc1)Nc1cccc(-c2nc3ncccc3[nH]2)c1
IC50 [2]: 47 µM

O=C(COc1ccc(-c2ccccc2)cc1)Nc1ccc(-c2nc3ncccc3[nH]2)cc1
IC50 [2]: 0.62 µM

CCC/C=C/COCC(=O)Nc1ccccc1-c1nc2ncccc2[nH]1
IC50 [2]: 5.5 µM

CC(C)c1ccc(OCC(=O)Nc2cccc(-c3nc4ncccc4o3)c2)cc1
IC50 [2]: 2.1 µM

N#CNC(COc1ccc(Oc2ccccc2)cc1)Cn1ncnn1 (stereo not drawn)
IC50 [1]: 5.3 µM

O=C(COc1ccc(Oc2ccccc2)cc1)Cn1ncc2cc(C(=O)NS(=O)(=O)C(F)(F)F)ccc21
IC50 [1]: 0.51 µM

O=C(COc1ccc(-c2ccccc2)cc1)Nc1ccc(-c2nc3ncccc3o2)cc1
IC50 [2]: 0.35 µM

O=C(COc1ccccc1)Nc1cccc(-c2nc3ncccc3o2)c1
IC50 [2]: 18 µM

O=C(COc1ccc(Oc2ccccc2)cc1)Cn1ncc2cc(NC(=O)Nc3ccccc3)ccc21
IC50 [1]: 6 µM

O=C(COc1ccc(Oc2ccccc2)cc1)Cn1ncnn1
IC50 [1]: 0.008 µM

CC(=O)Nc1ccc2c(cnn2CC(=O)COc2ccc(Oc3ccccc3)cc2)c1
IC50 [1]: 3.9 µM

CC(C)Cc1ccc(C(C)C(=O)N2CCN(c3ccc(Cl)c(Cl)c3)CC2)cc1 (stereo not drawn)
IC50 [3]: 16 µM

COc1ccc(N2CCN(C(=O)C(C)c3ccc(CC(C)C)cc3)CC2)cc1 (stereo not drawn)
IC50 [3]: 4.5 µM

CC(C)Cc1ccc(C(C)C(=O)NCc2ccc(Cl)cc2)cc1 (stereo not drawn)
IC50 [3]: 27 µM

CC(C)Cc1ccc(C(C)C(=O)NCc2ccc(C(C)(C)C)cc2)cc1 (stereo not drawn)
IC50 [3]: 25 µM

CC(C)Cc1ccc(C(C)C(=O)NCc2ccccc2)cc1 (stereo not drawn)
IC50 [3]: 21 µM

O=C(COc1ccc(Oc2ccccc2)cc1)Cn1ncc2cc(C(=O)O)ccc21
IC50 [1]: 0.055 µM

COc1ccc(CNC(=O)C(C)c2ccc(CC(C)C)cc2)cc1 (stereo not drawn)
IC50 [3]: 43 µM

O=C(COc1ccc(Oc2ccccc2)cc1)Cn1ncc2cc(NC(=O)CO)ccc21
IC50 [1]: 5.4 µM

CC(C)Cc1ccc(C(C)C(=O)N2CCN(c3ccc(Cl)cc3)CC2)cc1 (stereo not drawn)
IC50 [3]: 1.7 µM

CC(C)Cc1ccc(C(C)C(=O)NCc2ccc(F)cc2)cc1 (stereo not drawn)
IC50 [3]: 27 µM

O=C(COc1ccc(Oc2ccccc2)cc1)Cn1ncc2cc(C(=O)NS(=O)(=O)c3ccccc3)ccc21
IC50 [1]: 4.7 µM

Cc1cccc(N2CCN(C(=O)C(C)c3ccc(CC(C)C)cc3)CC2)c1 (stereo not drawn)
IC50 [3]: 16 µM

Cc1cccc(N2CCN(C(=O)C(C)c3ccc(CC(C)C)cc3)CC2)c1C (stereo not drawn)
IC50 [3]: 1.7 µM

O=C(COc1ccc(Oc2ccccc2)cc1)Cn1ncc2ccccc21
IC50 [1]: 2.6 µM

CC(C)Cc1ccc(C(C)C(=O)NCc2ccc(C(F)(F)F)cc2)cc1 (stereo not drawn)
IC50 [3]: 51 µM

CC(C)Cc1ccc(C(C)C(=O)N2CCN(c3ccccc3)CC2)cc1 (stereo not drawn)
IC50 [3]: 4.7 µM

COC(=O)Nc1ccc2c(cnn2CC(=O)COc2ccc(Oc3ccccc3)cc2)c1
IC50 [1]: 4 µM

O=C(COc1ccc(Oc2ccccc2)cc1)Cn1ncc2cc(NC(=O)Oc3ccccc3)ccc21
IC50 [1]: 2.1 µM

CC(C)Cc1ccc(C(C)C(=O)NCc2cccc(C(F)(F)F)c2)cc1 (stereo not drawn)
IC50 [3]: 28 µM

CCNC(=O)Nc1ccc2c(cnn2CC(=O)COc2ccc(Oc3ccccc3)cc2)c1
IC50 [1]: 1.6 µM

COc1ccc(CNC(=O)C(C)c2ccc(CC(C)C)cc2)cc1O (stereo not drawn)
IC50 [3]: 18 µM
